Assay results from BindingDB's records for doi:10.1074/jbc.271.42.26315 (Bayer, 1996).
pKi: −log10 of the molar value. Where “and” joins values, the source holds several entries; their conditions need not be identical. Equal entries are not always repeated. Peptide text beside a SMILES is read from it.

Tests used:
[1] = target: T1, Neuropeptide Y receptor type 5 (Homo sapiens, UniProt Q15761)
T1 sequence (Q15761 whole entry): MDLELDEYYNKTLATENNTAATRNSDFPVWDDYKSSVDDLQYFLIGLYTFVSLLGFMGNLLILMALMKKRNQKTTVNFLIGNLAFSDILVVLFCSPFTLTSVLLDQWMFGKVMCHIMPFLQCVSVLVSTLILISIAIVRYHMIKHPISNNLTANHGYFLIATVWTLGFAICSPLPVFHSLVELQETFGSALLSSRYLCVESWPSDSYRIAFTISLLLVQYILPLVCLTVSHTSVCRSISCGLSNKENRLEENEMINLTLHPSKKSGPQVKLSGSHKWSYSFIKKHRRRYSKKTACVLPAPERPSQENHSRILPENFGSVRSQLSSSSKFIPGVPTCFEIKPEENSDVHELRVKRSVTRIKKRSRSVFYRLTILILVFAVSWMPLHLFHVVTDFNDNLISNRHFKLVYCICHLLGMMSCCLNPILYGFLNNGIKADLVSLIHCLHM

[2] = target: T2, Neuropeptide Y receptor type 5 (Rattus norvegicus, UniProt Q63634)
T2 sequence (Q63634 whole entry): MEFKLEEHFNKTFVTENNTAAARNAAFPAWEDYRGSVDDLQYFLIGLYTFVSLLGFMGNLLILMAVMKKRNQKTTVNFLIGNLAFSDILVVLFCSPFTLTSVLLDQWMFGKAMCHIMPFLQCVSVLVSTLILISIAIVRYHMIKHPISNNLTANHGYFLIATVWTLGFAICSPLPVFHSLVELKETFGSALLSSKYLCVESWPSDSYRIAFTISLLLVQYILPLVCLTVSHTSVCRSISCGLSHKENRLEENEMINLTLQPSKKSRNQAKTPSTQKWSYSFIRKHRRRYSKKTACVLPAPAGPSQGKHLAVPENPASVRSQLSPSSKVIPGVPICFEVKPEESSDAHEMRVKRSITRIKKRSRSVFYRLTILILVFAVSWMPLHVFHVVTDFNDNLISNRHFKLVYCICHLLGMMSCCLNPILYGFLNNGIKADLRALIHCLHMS

pKi [1] | pKi [2] | Structure (SMILES)
– | 6.00 | N=C(N)NCCCC(NC(=O)C(c1ccccc1)c1ccccc1)C(=O)NCc1ccc(O)cc1 (stereo unspecified) [NSC_5311023]
6.00 | 6.00 | CC[C@H](C)[C@H](NC(=O)[C@H](Cc1ccc(O)cc1)NC(=O)[C@H](Cc1cnc[nH]1)NC(=O)[C@H](CCCN=C(N)N)NC(=O)[C@H](CC(C)C)NC(=O)[C@H](C)NC(=O)[C@@H](N)CO)C(=O)N[C@@H](CC(N)=O)C(=O)N[C@@H](CC(C)C)C(=O)N[C@H](C(=O)N[C@H](C(=O)N[C@@H](CCCN=C(N)N)C(=O)N[C@@H](CCC(N)=O)C(=O)N[C@@H](CCCN=C(N)N)C(=O)N[C@@H](Cc1ccc(O)cc1)C(N)=O)[C@@H](C)O)[C@@H](C)CC [NPY22-36, rat, human]
6.36 | 7.21 and 6.53 | CC[C@H](C)[C@H](NC(=O)[C@H](Cc1ccc(O)cc1)NC(=O)[C@H](CCCNC(=N)N)NC(=O)[C@H](CCCNC(=N)N)NC(=O)[C@H](CC(C)C)NC(=O)[C@H](CCC(N)=O)NC(=O)[C@@H](NC(=O)[C@H](CCC(=O)O)NC(=O)[C@H](Cc1ccc(O)cc1)NC(=O)[C@H](CCC(N)=O)NC(=O)[C@H](C)NC(=O)[C@H](CCCNC(=N)N)NC(=O)[C@H](CCC(N)=O)NC(=O)[C@H](CCC(=O)O)NC(=O)[C@H](Cc1c[nH]cn1)NC(=O)[C@@H](NC(=O)[C@H](C)NC(=O)[C@H](Cc1ccc(O)cc1)NC(=O)[C@H](CC(=O)O)NC(=O)CNC(=O)[C@@H]1CCCN1C(=O)[C@H](Cc1ccc(O)cc1)NC(=O)[C@H](CCSC)NC(=O)[C@@H]1CCCN1C(=O)[C@H](CCC(=O)O)NC(=O)[C@H](CC(C)C)NC(=O)[C@@H]1CCCN1C(=O)[C@H](C)N)[C@@H](C)O)[C@@H](C)O)C(=O)N[C@@H](CC(N)=O)C(=O)N[C@H](C(=O)N[C@@H](CC(C)C)C(=O)N[C@H](C(=O)N[C@@H](CCCNC(=N)N)C(=O)N1CCC[C@H]1C(=O)N[C@@H](CCCNC(=N)N)C(=O)N[C@@H](Cc1ccc(O)cc1)C(N)=O)[C@@H](C)O)[C@@H](C)O [NSC_41735]

Structure (SMILES) | pKi [1] | pKi [2]
CC(C)C[C@H](NC(=O)[C@H](CO)NC(=O)[C@H](C)NC(=O)[C@H](Cc1ccc(O)cc1)NC(=O)[C@H](Cc1ccc(O)cc1)NC(=O)[C@H](CCCNC(=N)N)NC(=O)[C@H](CO)NC(=O)[C@H](CC(C)C)NC(=O)[C@H](CCC(=O)O)NC(=O)[C@H](CCC(=O)O)NC(=O)[C@@H]1CCCN1C(=O)[C@@H](N)CO)C(=O)N[C@@H](CCCNC(=N)N)C(=O)N[C@@H](Cc1c[nH]cn1)C(=O)N[C@@H](Cc1ccc(O)cc1)C(=O)N[C@@H](CC(C)C)C(=O)N[C@@H](CC(N)=O)C(=O)N[C@@H](CC(C)C)C(=O)N[C@H](C(=O)N[C@H](C(=O)N[C@@H](CCCNC(=N)N)C(=O)N[C@@H](CCC(N)=O)C(=O)N[C@@H](CCCNC(=N)N)C(=O)N[C@@H](Cc1ccc(O)cc1)C(N)=O)[C@@H](C)O)C(C)C [PYY 3-36, rat] (H-SPEELSRYYASLRHYLNLVTRQRY-NH2) | 8.00 | –
